We go through 13 compounds from ChEMBL document CHEMBL1201862, “PubChem BioAssay data set” (2004).

Holding throughout (test): NCI-60 cell line screen, 48 h
The subject of test [1] is 786-0.
For test [2], the system named is HCC 2998.
Test [3] concerns HT-29.
Test [4] deals with SF-295.
The test system of test [5] is SNB-75.
Test [6] deals with KM12.
The subject of test [7] is SK-MEL-2.
In test [8] the test system is SNB-19.
Test [9] has as its system TK-10.
Test [10] relates to IGROV-1.
Test [11] relates to M14.
Test [12] concerns K562.
Test [13] relates to Malme-3M.
The subject of test [14] is HL-60.
Test [15] has as its system NCI-H460.
Test [16] concerns COLO 205.
Test [17] deals with RXF 393.

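Briefly, cells in 96-well plates were exposed to five compound concentrations for 48 h, and endpoints were estimated by linear interpolation. GI50 = concentration required for 50% inhibition of growth.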 Calls of active or inactive are those of the source. Rule as the data show it: active = GI50 up to about 1.1 µM and inactive = higher.

Take `CCOP(=O)(OCC)OC(C#N)c1ccc(-c2ccccc2)cc1` (stereo not drawn): the GI50 in [1] was 16.9 µM (inactive); in test [2], 28.5 µM (inactive); in test [3] it was 17.9 µM (inactive); in [4], 70.6 µM (inactive); in [5] it was 27.7 µM (inactive); in test [6] it was 18.2 µM (inactive). The GI50 in [7] was 36.3 µM (inactive); in [8] it was 73.1 µM (inactive); in test [9], 30.5 µM (inactive); in [10], 36.3 µM (inactive); in [11], 18.4 µM (inactive); in test [12] it was 20.3 µM (inactive). Further, the GI50 was 19.6 µM (inactive) in test [13], 18.4 µM (inactive) in test [14], 20.5 µM (inactive) in test [15] and 18.2 µM (inactive) in [16].
Turning to `COC(=O)C12CCC(CC1=O)C2(C)C` (stereo not drawn), the GI50 in test [1] was > 100 µM (inactive); in test [2] it was > 100 µM (inactive); in test [3] it was > 100 µM (inactive); in test [4], > 100 µM (inactive); in [5], 40.2 µM (inactive); in [17], > 100 µM (inactive). Also, the GI50 in [8], in [9], in test [10], in [11], in [12] and in [13] was > 100 µM (inactive) in each case. Also, the GI50 in test [14], in test [15] and in test [16] was > 100 µM (inactive) throughout.
Take `c1ccc(SC2(Sc3ccccc3)CCCC2)cc1`: the GI50 in test [1], in test [4], in test [5], in test [6], in [17] and in test [7] was > 100 µM (inactive) each time. For the same compound, the GI50 in test [8], in [9], in [11], in [12], in test [14] and in test [15] was > 100 µM (inactive) throughout. In addition, in test [16], the GI50 is > 100 µM (inactive).
Consider `CC1=C(C(=O)O)N2C(=O)[C@@H](NC(=O)C(c3ccccc3)N3CSC(=S)N(C(C)C)C3)C2SC1` (stereo partly drawn), for which the GI50 in test [1], in [3], in test [4], in [5], in [6] and in test [7] was > 100 µM (inactive) each time. For the same compound, the GI50 was > 100 µM (inactive) in test [8]; > 100 µM (inactive) in test [9]; > 100 µM (inactive) in [10]; > 100 µM (inactive) in test [11]; 74.1 µM (inactive) in test [12]; > 100 µM (inactive) in [13]. For the same compound, the results for the GI50 in [14], in test [15] and in test [16] were > 100 µM (inactive), > 100 µM (inactive) and 86.3 µM (inactive), respectively.
As to `N#Cc1cc([N+](=O)[O-])ccc1NC(=O)C(=O)C(C(=O)/C=C/c1ccccc1)C1OC(=O)c2ccccc21` (stereo not drawn), the GI50 in test [1], in test [2], in [3], in [4], in test [5] and in [6] was > 100 µM (inactive) in each case. Moreover, the GI50 in [17] is 60.5 µM (inactive); in [8], > 100 µM (inactive); in test [9] it was > 100 µM (inactive); in test [10], > 100 µM (inactive); in test [11] it was > 100 µM (inactive); in [12] it was 13.9 µM (inactive). Also, the GI50 in test [13], in [14], in test [15] and in test [16] was > 100 µM (inactive) throughout.
With `Cc1cc(C)nc(NS(=O)(=O)c2ccc(Nc3c4ccccc4nc4c(C(=O)Nc5ccc(S(=O)(=O)N=C(N)N)cc5)cccc34)cc2)n1`, the GI50 in [1] was > 100 µM (inactive); in test [2] it was > 100 µM (inactive); in test [3] it was > 100 µM (inactive); in test [5] it was 27.2 µM (inactive); in [6], > 100 µM (inactive); in [17], 24.4 µM (inactive). Also, the GI50 was > 100 µM (inactive) in test [7]; 35.7 µM (inactive) in test [8]; > 100 µM (inactive) in test [9]; > 100 µM (inactive) in test [10]; 90.4 µM (inactive) in test [11]; > 100 µM (inactive) in [12]. In addition, the values for the GI50 in [13], in [15] and in test [16] were 78.7 µM (inactive), > 100 µM (inactive) and > 100 µM (inactive), respectively.
Consider `O=C1C(=O)N(c2ccc(Cl)cc2)C(=O)C(=O)C1c1nc2ccccc2s1`, for which the GI50 in test [1], in [2], in test [3], in [4], in [5] and in test [6] was > 100 µM (inactive) in each case. The GI50 in [17] is > 100 µM (inactive); in test [7], > 100 µM (inactive); in [8], > 100 µM (inactive); in test [9], > 100 µM (inactive); in [10], 71 µM (inactive); in test [11], > 100 µM (inactive). Moreover, the GI50 in test [12], in test [13], in [15] and in [16] was > 100 µM (inactive) throughout.
Take `COCCN1C2=CCCCC2=Nc2c1nc(N)[nH]c2=O`: the GI50 in [1], in test [2], in test [3], in test [4], in [5] and in [6] was > 100 µM (inactive) each time. For the same compound, the GI50 in test [17], in test [8], in [9], in [10], in [11] and in test [12] was > 100 µM (inactive) in each case. Moreover, the GI50 in [13], in test [14], in [15] and in test [16] was > 100 µM (inactive) in each case.
Turning to `CC1(C)COC(c2cccnc2/C=N/O)=N1`, the GI50 in test [1], in test [3], in [4], in [5], in [6] and in [17] was > 100 µM (inactive) each time. In addition, the GI50 in [7], in [8], in [9], in [10], in test [11] and in test [12] was > 100 µM (inactive) each time. Further, the GI50 in [13], in [14], in test [15] and in test [16] was > 100 µM (inactive) throughout.
As for `Cc1cc(N(CCC#N)CCC#N)ccc1/C=C1N=C(/C=C\c2ccccc2)N(NC(=O)CC(=O)Nc2ccccc2Cl)C\1=O`, the GI50 in test [1], in test [3], in test [4], in [5], in [6] and in [7] was > 100 µM (inactive) in each case. Moreover, the GI50 in test [8], in [9], in test [10], in [11], in test [12] and in test [13] was > 100 µM (inactive) throughout. The GI50 in [14], in test [15] and in test [16] was > 100 µM (inactive) in each case.
Regarding `CCCC1N2CCCCC2[C@@H]2c3[nH]c4ccccc4c3CCN12` (stereo partly drawn), the GI50 in test [1] was > 100 µM (inactive); in test [2] it was > 100 µM (inactive); in [3] it was > 100 µM (inactive); in test [4] it was > 100 µM (inactive); in [5], 32.3 µM (inactive); in test [17] it was > 100 µM (inactive). The GI50 in test [7] was > 100 µM (inactive); in test [8] it was > 100 µM (inactive); in test [10] it was > 100 µM (inactive); in [11], > 100 µM (inactive); in test [12], > 100 µM (inactive); in test [13], 25.8 µM (inactive). In addition, the GI50 in test [14], in [15] and in test [16] was > 100 µM (inactive) in each case.
With `O=C(O)[C@@H]1OCCOCCO[C@@H](C(=O)O)[C@H](C(=O)O)OCCOCCO[C@H]1C(=O)O`, the GI50 is > 100 µM (inactive) in test [1]; > 100 µM (inactive) in test [2]; > 100 µM (inactive) in test [3]; > 100 µM (inactive) in test [4]; 97.9 µM (inactive) in test [5]; > 100 µM (inactive) in test [6]. Further, the GI50 in test [7] was > 100 µM (inactive); in test [8] it was > 100 µM (inactive); in test [9], > 100 µM (inactive); in test [10], > 100 µM (inactive); in test [11], > 100 µM (inactive); in test [12] it was > 72.3 µM (inactive). For the same compound, the GI50 in [13] was > 100 µM (inactive); in test [14], 14.3 µM (inactive); in [15], > 64.4 µM (inactive); in test [16], > 61.7 µM (inactive).
In the case of `CCC(C)(C)C(=O)O[C@H]1C[C@@H](C)C=C2C=C[C@H](C)[C@H](CC[C@@H]3C[C@@H](O)CC(=O)O3)[C@H]21` [SIMVASTATIN], the GI50 in test [1] was 9.33 µM (inactive); in [2], 16.5 µM (inactive); in test [3] it was 6.85 µM (inactive); in test [4] it was 1.13 µM (inactive); in test [5] it was 0.658 µM (active); in test [6] it was 8.45 µM (inactive). Further, the GI50 in test [17] is 0.811 µM (active); in test [7], 0.522 µM (active); in test [10], 0.647 µM (active); in test [11] it was 2.25 µM (inactive); in [12], 17.6 µM (inactive); in [14], 3.01 µM (inactive). Besides, the results for the GI50 in [15] and in [16] were 9.08 µM (inactive) and 12.1 µM (inactive), respectively.
